Measurements taken from paper PMC8920304, “Potent Inhibition of Human Cytochrome P450 3A4 by Biflavone Components from Ginkgo Biloba and Selaginella Tamariscina” (Frontiers in Pharmacology, 2022).

What was measured:
[1] = molecular target: T1, CYP3A4 (Homo sapiens, UniProt P08684); experiment: Inhibition of NEN 4-hydroxylation in human liver microsomes (fluorescence high-throughput screening); type: in vitro ADME; conditions: HLM, NEN probe, mean ± S.D. (n = 3); read-out: IC50 against CYP3A4 (NEN 4-hydroxylation)
T1 construct: The primary incubation mixture contains HLM, potassium phosphate buffer; from tissue; host or cells: human liver microsomes (HLM)
T1 sequence (P08684 whole entry): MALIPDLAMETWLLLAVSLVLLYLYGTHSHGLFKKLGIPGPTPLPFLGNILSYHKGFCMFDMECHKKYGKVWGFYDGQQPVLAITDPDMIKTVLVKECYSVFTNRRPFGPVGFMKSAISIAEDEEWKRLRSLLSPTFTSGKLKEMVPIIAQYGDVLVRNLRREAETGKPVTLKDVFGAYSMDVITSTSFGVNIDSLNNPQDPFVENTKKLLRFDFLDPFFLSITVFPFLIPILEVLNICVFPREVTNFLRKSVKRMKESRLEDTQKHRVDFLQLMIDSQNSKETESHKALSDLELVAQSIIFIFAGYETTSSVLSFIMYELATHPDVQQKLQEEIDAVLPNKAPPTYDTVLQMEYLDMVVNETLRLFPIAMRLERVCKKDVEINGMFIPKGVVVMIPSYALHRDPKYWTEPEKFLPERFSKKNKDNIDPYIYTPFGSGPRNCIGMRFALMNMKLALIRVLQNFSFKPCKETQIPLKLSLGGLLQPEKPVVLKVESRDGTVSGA
Experimental: The primary incubation mixture contains HLM, potassium phosphate buffer (pH 7.4, 100 mM), G-6-P (10 mM), G-6-P dehydrogenase (1 U/ml), MgCl2 (4 mM), NEN (50 µM), extracts of herbal medicine (20 µg/ml), or components. The incubation duration and HLM protein concentrations were 30 min and 0.05 mg/ml, respectively. The reaction was initiated by the addition of NADP^+ and terminated by the addition of 100 µL ice-cold acetonitrile (ACN). NEN 4-hydroxylation were utilized as the probe reaction for CYP3A4, and fluorescence image of 96-well microplates were measured by a fluorescent image analyzer (GE Amersham Typhoon, Sweden) under the excitation wavelength of 488 nm (E m: 570 ± 15 nm). The formation of NEHN was evaluated by the quantitative analysis of fluorescence signal for individual wells of microplates using the equipment supporting software. The percentage residual activity was calculated from percentage relative value of NEHN formation rate.

[2] = molecular target: T1, CYP3A4; experiment: Inhibition kinetic characterization with NEN 4-hydroxylation in HLM; type: in vitro ADME; conditions: for Type of inhibition: NEN 4-hydroxylation; for Ki: NEN 15-150 µM, 30 min; for ɑ (degree to which inhibitor binding influences enzyme-substrate binding): mixed-inhibition model
Experimental: Varying concentrations of DGK, GK, IGK, and AMF incubated for 30 min with varying concentrations of NEN (15–150 µM). The high-throughput screening assay was performed, and the inhibition curve was fitted with GraphPad Prism (Version 8.0). The inhibition type was confirmed based on the R square of the following four equations and the Dixon and Lineweaver–Burk plots. The inhibition constant (K i) values were determined using the equations for competitive inhibition (Eq. 1), noncompetitive inhibition (Eq. 2), uncompetitive inhibition (Eq. 3), and mixed inhibition (Eq. 4). v=VmaxS/Km(1+I/Ki)+S (1) v=VmaxS/(Km+S)(1+I/Ki) (2) v=VmaxS/S(1+I/Ki)+Km (3) v=VmaxS/Km(1+I/Ki)+S(1+I/αKi) (4)

[3] = molecular target: T1, CYP3A4; experiment: Inhibition of CYP3A4-mediated oxidation of clinical drugs (tamoxifen, gefitinib, ticagrelor) in HLM, LC-MS/MS; type: in vitro ADME; conditions: 30 min, ± SD
Experimental: Varying concentrations of DGK, GK, IGK, and AMF incubated for 30 min with gefitinib (10 μM), tamoxifen (20 μM), ticagrelor (30 μM), respectively ([Wang et al., 2020]). The ExionLC AD HPLC system consisted of an autosampler, a quaternary delivery system and a degasser. The chromatograph was equipped with a Luna Omega PS C18 (2.1 × 100 mm, 3 μm) analytical column, and the mobile phase consisted of 0.1% formic acid aqueous solution (A) and ACN (B), and were conducted with a 0.30 ml/min flow rate as follow for the gradient program: 0–1.5 min (10–10% B), 1.5–3.0 min (10–45% B), 3.0–5.0 min (45–90% B). An AB MDS Sciex QTRAP 5500 Mass Spectrometer equipped with an ESI source was used to analyze the target substances. The positive mode was used with N-demethylated tamoxifen (358.0→58.0) and defluorinated gefitinib (445.0→128.0). The relative parameters were set as follows: ion spray voltage, 5500 V; temperature, 550°C; curtain gas (CUR) flow, […]; gas1 and gas2 (nitrogen), 45 and 55 psi. The negative mode was used with dehydroxyethoxylated ticagrelor (477.2→361.1). The relative parameters were set as follows: ion spray voltage, -4500 V; temperature, 550°C; curtain gas flow, […]; gas1 and gas2, 50 and 50 psi. For other parameters, please refer to Supplementary Table S1 in the supplementary data.

[4] = molecular target: T1, CYP3A4; parameters: method as in Ning et al., 2019; conditions: HLM; ref Ning et al., 2019; cited from earlier work
[5] = gefitinib 10 μM, defluorination, read-out: IC50 toward gefitinib
[6] = tamoxifen 20 μM, N-demethylation, read-out: IC50 toward tamoxifen
[7] = ticagrelor 30 μM, dehydroxyethoxylation, read-out: IC50 toward ticagrelor

Row | SMILES | IC50 [1] [µM] | Type of inhibition [2] | Ki [2] [µM] | ɑ (degree to which inhibitor binding influences enzyme-substrate binding) [2] | IC50 [3, 5] [µM] | IC50 [3, 6] [µM] | IC50 [3, 7] [µM] | Inhibition of C4-hydroxylation of NEN in human liver microsomes (in words) [4]
1 | COc1ccc(-c2cc(=O)c3c(O)cc(O)c(-c4cc(-c5cc(=O)c6c(O)cc(O)cc6o5)ccc4OC)c3o2)cc1 [IGK, isoginkgetin] | 0.982 ± 0.006 | mixed reversible inhibition | 0.278 ± 0.087 | 2.79 | 13.1 ± 0.415 | 4.66 ± 0.236 | 10.2 ± 0.382 | 
2 | Cc1ccc(-c2c(-c3nn(C)c4ncnc(N5CC[C@H](N6CCCCC6)C5)c34)cnn2C)cc1 [CYP3cide] |  |  |  |  |  |  |  | strongly inhibited

Continued by falling IC50 [1], values first:

Row | IC50 [1] [µM] | Type of inhibition [2] | Ki [2] [µM] | ɑ (degree to which inhibitor binding influences enzyme-substrate binding) [2] | IC50 [3, 5] [µM] | IC50 [3, 6] [µM] | IC50 [3, 7] [µM] | SMILES | Inhibition of C4-hydroxylation of NEN in human liver microsomes (in words) [4]
3 | 0.186 ± 0.004 | mixed reversible inhibition | 0.101 ± 0.03 | 5.55 | 5.2 ± 0.527 | 2.72 ± 0.093 | 2.92 ± 0.047 | O=c1cc(-c2ccc(O)c(-c3c(O)cc(O)c4c(=O)cc(-c5ccc(O)cc5)oc34)c2)oc2cc(O)cc(O)c12 [AMF, Amentoflavone] | 
4 | 0.162 ± 0.022 | mixed reversible inhibition | 0.07 ± 0.018 | 2.98 | 1.72 ± 0.001 | 1.02 ± 0.088 | 3.5 ± 0.034 | COc1ccc(-c2cc(=O)c3c(O)cc(O)cc3o2)cc1-c1c(O)cc(O)c2c(=O)cc(-c3ccc(O)cc3)oc12 [DGK, bilobetin] | 
5 | 0.106 ± 0.004 | mixed reversible inhibition | 0.034 ± 0.007 | 4.56 | 0.869 ± 0.001 | 0.478 ± 0.003 | 1.61 ± 0.039 | COc1cc(O)c2c(=O)cc(-c3ccc(OC)c(-c4c(O)cc(O)c5c(=O)cc(-c6ccc(O)cc6)oc45)c3)oc2c1 [GK, ginkgetin] | 
